B1: rh-inhibin A: recombinant human inhibin A standard (protein)
chain 1: STPLMSWPWSPSALRLLQRPPEEPAAHANCHRVALNISFQELGWERWIVYPPSFIFHYCHGGCGLHIPPNLSLPVPGAPPTPAQPYSLLPGAQPCCAALPGTMRPLHVRTTSDGGYSFKYETVPNLLTQHCACI
chain 2: GLECDGKVNICCKKQFFVSFKDIGWNDWIIAPSGYHANYCEGECPSHIAGTSGSSLSFHSTVINHYRMRGHSPFANLKSCCVPTKLRPMSMLYYDDGQNIIKKDIQNMIVEECGCS

Columns and labels:
As #41 [1] = assay: RIA (Assay 2): competition with iodinated inhibin for As #41; format: binding, sheep; settings: for As#41 ED50: biotinylated peptides, 50% fall in binding of iodinated inhibin; for ED50 values As#41: non-biotinylated peptides, hr-inhibin A as standard
Text: (§1) This assay was used to determine which peptides compete with iodinated 30 kDa inhibin for As #41, #128 and #1989 (used in the original inhibin RIA, Lapphorn et al., 1989, supra) in a RIA format. This assay identifies those peptides that bind to inhibin-binding antibodies in the antiserum and provides a stricter affinity and specificity assessment in identifying the appropriate epitopes than that found with Assay 1. The competition between peptide and hr-inhibin (used as the standard) was assessed from their ED50 values. The RIA consisted of the competition of iodinated inhibin and either hr-inhibin reference preparation, individual peptides or pools from the 4 peptide regions, with As #41, #128 and in some instances, As #1989. The peptides/inhibin/iodinated inhibin and antisera (at a prescribed dilution) were incubated overnight at 4° C. using standard methodologies. The antibody-bound iodinated inhibin was immunoprecipitated with the addition of an anti-sheep IgG serum raised in goats and the radioactivity was measured in a gamma counter. The concentration of peptide that gives a 50% fall in binding of iodinated inhibin (ED50) was determined and this value was used to give a measure of the affinity of the peptide for the antiserum. This methodology consisted of determining the ED50 of the peptide in the RIA using iodinated human recombinant inhibin as tracer with either As #41, As #128 or As #1989 and graded doses of either hr-inhibin or peptide as described in Example 2.

As #128 [2] = assay: RIA (Assay 2): competition with iodinated inhibin for As #128; format: binding, sheep; settings: for As#128 ED50: biotinylated peptides, 50% fall in binding of iodinated inhibin; for ED50 values As#128: non-biotinylated peptides, hr-inhibin A as standard
Text: as §1

As #1989 = assay: RIA (Assay 2): competition with iodinated inhibin for As #1989; format: binding, rabbit; settings: for As#1989 ED50: 50% fall in binding of iodinated inhibin; for ED50 values As#1989: non-biotinylated peptides, hr-inhibin A as standard
Text: as §1

As #41 [3] = assay: Competitive 2-site assay (Assay 3), approach (b); format: binding, sheep; parameters: key to #41 2-site competitive assay Assay 3: +++++ major contribution; + minor contribution
Text: (§2) This assay was developed to establish the relative importance of the individual peptides and peptide pools (identified as epitopes in Assays 1 and 2) in the sandwich antibody format used in the IFMA with As #128 as capture antibody and As #41 as detection antibody. Two approaches (a and b) were considered, Approach (a) explores the cross-reaction of peptides with inhibin for the immobilized As #128 while Approach (b) assesses their cross-reaction with inhibin for As #41.
Approach (b). In this approach, the competition of peptides with the As #41 antiserum using the sandwich antibody format was assessed. Hr-Inhibin was initially incubated with the As #128 coated wells for 1 hour at room temperature. The biotinylated peptide pools and/or individual peptides were incubated together with iodinated As #41 for 1 hour and then added to the inhibin bound As #128 coated plates and incubated for 2 hours at room temperature. Plates were then washed to remove any unbound material and the resulting activity was measured in the gamma counter.

As #128 [4] = assay: Competitive 2-site assay (Assay 3), approach (a); format: binding, sheep; parameters: key: +++++ major contribution; + minor contribution; settings: relative contribution
Text: as §2
Approach (a). The biotinylated peptide pools and/or individual peptides at various concentrations, in combination with a fixed concentration of hr-inhibin, were incubated for 2 hours with As #128-coated plates. The plates were then washed to remove any unbound material. Iodinated As #41 was then added to bind to the bound hr-inhibin, the plates washed and the bound radioactivity was measured in a gamma counter. The counts measured were proportional to the amount of hr-inhibin bound to both antisera. The possibility that a peptide contained two epitopes capable of linking As #128 and #41 was assessed in the absence of added hr-inhibin.

As #128 [5] = assay: Solid phase assay (Assay 1): biotinylated peptides binding to As #128; parameters: species or system sheep; key: +++++ major contribution; + minor contribution; settings: relative contribution
Experimental: This assay is a broad screen of the binding of the 31 biotinylated peptides to As #41 and #128 as recommended by Chiron Mimotopes.
The biotinylated peptides were initially bound to streptavidin-coated 96-well plates (2 hours at room temperature), antiserum #41 or #128 was then added (2 hours room temperature) to bind to the peptides. Detection of antiserum binding was assessed by a further incubation with an anti-ovine IgG serum labeled with the enzyme, horseradish peroxidase. The enzyme activity was assessed by conversion of a colorless substrate to a colored product that is detected in a spectrophotometer. The enzyme activity measured was proportional to the extent of the binding of the peptides.

As #41 [6] = assay: Two-site assay design variation: biotinylated #41 pre-incubated with peptide; format: binding, sheep; settings: non-biotinylated peptides 0.1-1.0 micromolar
Experimental: (iv) In a variation to the above design, biotinylated #41 was pre-incubated with peptide (0.1-1.0 micromolar) for 1.5 hours at room temperature and then added to the As #128 coated plate pre-bound with inhibin as for (i)-(iii). […] Combination of peptide #5 and #30 led to 74% decrease.

As #128 [7] = assay: Two-site assay design: peptides pre-incubated with As #128 coated plate; format: binding, sheep; settings: non-biotinylated peptides 0.1-1 micromolar
Experimental: On the other hand, the IFMA design is based on the total amount of inhibin bound which is a combination of both antibody affinity and concentration. In order to establish to what extent epitopes to these peptides contribute to the overall IFMA, the following two-site assay designs were used.
(i) Peptides #5, #20 and #30 (0, 0.1-1 micromolar) were incubated with the As #128 coated plate for 1.5 hours at RT and the wells washed. The highest dose of peptide used was saturating.
(ii) Hr-Inhibin was then added as a saturating or near saturating dose to the As #128 coated plate and incubated for 2 hours at room temperature and the plate washed.
(iii) Biotinylated As #41 was added to the above wells and incubated for 2 hours at RT. Plates were then washed and counted.

As#128 and/or As#41 = assay: Inhibin IFMA with pre-immunoabsorption of antisera by peptides; format: binding, sheep
Text: This IFMA is used in the measurement of inhibin in serum from women with ovarian cancer and is presented at this juncture as a reference to the following procedures. The IFMA is a sandwich antibody assay in 96-well microtiter plates. The capture antiserum is As #128 and the labeled antiserum As #41, both raised in sheep to the alpha subunit of human inhibin. Sheep As #128 was also boosted with human recombinant 30-kDa inhibin. The microtiter plates were coated with a caprylic acid IgG cut of antiserum #128. Inhibin standard and serum samples were added and incubated for 2 hours at room temperature. A biotinylated antiserum (As #41) which has been immunopurified by absorption to a column of bovine (alpha)C subunit fusion protein (as previously described, Robertson et al., 1997, supra) followed by elution with a glycine (pH 2.5) buffer, was added to bind to the antibody-bound inhibin (2-hour incubation at room temperature). Fluorescently (Eu) labeled-streptavidin that has a high affinity for biotin is added (30 minutes at room temperature) and the Eu-bound streptavidin is counted in a time-resolved fluorimeter. The Eu measured is proportional to the inhibin bound by the two antisera.
As another approach, the competition of combinations of peptides at a maximum saturating dose was assessed in the IFMA (FIGS. 7-9). […] This suppression in binding provides a measure of the contribution of that particular epitope to the assay.

PO#14-R1 = assay: Cross-reaction of inhibin-related proteins in 14-R1 ELISA; format: binding, mouse; settings: relative to rh inhibin A standard (=100); average of two experiments
Experimental: (§3) An ELISA system using 96-well microtiter plates was developed consisting of one alpha subunit antibody as coating antibody and an alkaline phosphatase-linked second antibody as label. The alkaline phosphatase activity was amplified using an ELISA amplification kit (Gibco, Life Technologies, Rockville Md., USA). The plate was initially coated with monoclonal antibody at 2 micrograms/well in 0.1 M bicarbonate buffer pH 9.4 overnight at room temperature and blocked with 50 mM TRIS/HCl, 1% bovine serum albumin (BSA) pH 7.4.
(§4) The ELISAs in application to non-serum samples consisted of 100 microliters sample or recombinant human (rh) inhibin A standard (provided by National Institute of Biological Standards and Control, Potters Bar, Herts, UK) in assay buffer (100 mM TRIS/HCl, 154 mM NaCl, 5% Triton-X-100, 10% BSA pH, 7.5) and 100 microliters assay buffer. In the assay of serum, the inhibin A standard (100 microliters) was diluted in assay buffer. Inhibin-free serum (100 microliters) was also added to make a total well volume of 200 microliters. The inhibin-free serum was obtained by incubating serum with an immobilized inhibin alpha subunit antibody. […] Serum samples were initially boiled in the presence of SDS (2% final concentration) and diluted 1:1 with assay buffer before adding 100 microliters to the wells. The inhibin-free serum and the SDS boiling steps were included to offset any potential matrix effects of serum known to affect other inhibin ELISAs although the need for these specific steps had not been assessed.
(§5) The plate was incubated with shaking overnight at room temperature. The wells were washed, and alkaline phosphatase (AP)-linked antibody added, incubated with shaking for 3 hours at room temperature and washed again. The substrate (NADPH, Gibco) was added and the plate incubated for 2 hours with shaking at room temperature. The amplifying enzymes (alcohol dehydrogenase and diaphorase, Gibco) were added and incubated for 5-15 min until appropriate color had developed. The plate was read at 490/630 nm on an ELISA plate reader.
(§6) The specificity of the ELISAs was assessed by determining the cross-reaction of inhibin-related proteins in the various ELISAs.

PO#23-R1 = assay: Cross-reaction of inhibin-related proteins in 23-R1 ELISA; format: binding, mouse; settings: relative to rh inhibin A standard (=100); average of two experiments
Experimental: as §3, §4, §5, §6

PO#14 + PO#23-R1 = assay: Cross-reaction of inhibin-related proteins in 14 + 23-R1 ELISA; format: binding, mouse; settings: relative to rh inhibin A standard (=100); average of two experiments
Experimental: as §3, §4, §5, §6
As a result of an initial characterization of these ELISAs (see below), a combination of PO#14+PO#23 as coating antibodies and AP linked-R1 antibody as tracer was also assessed and its characteristics are also presented in Table 11 and 12 and FIG. 10c.

Row | Molecule | As#41 ED50 (As #41 [1]) [µM] | As#128 ED50 (As #128 [2]) [µM] | As#1989 ED50 (As #1989; biotinylated peptides) [µM] | #41 2-site competitive assay Assay 3 (As #41 [3]; relative contribution) | #128 2-site competitive assay Assay 3 (As #128 [4]) | ED50 values As#41 (As #41 [1]) [µM] | ED50 values As#128 (As #128 [2]) [µM] | #128 Antibody screen Assay 1 (As #128 [5]) | ED50 values As#1989 (As #1989) [µM] | inhibition with biotinylated #41 pre-incubated with peptide (As #41 [6]) | suppression in binding with As #128 (As #128 [7]) | % suppression at 2ng inhibin (As#128 and/or As#41; As#128 coating antibody pre-absorbed with peptide(s), As#41 label: buffer) [%] | ED50 with As #1989 (As #1989; biotinylated peptides) [µM] | affinity to rabbit antiserum #1989 (As #1989; in words) | blocking of As #41 binding to the inhibin-As#128 complex (As #41 [3]; biotinylated peptide pools or peptides incubated with iodinated As #41) [%] | % suppression at 2ng inhibin (As#128 and/or As#41; As#41 label pre-absorbed with peptide, As#128 coating antibody: buffer) [%] | 14-R1 ELISA specificity (PO#14-R1) | 23-R1 ELSIA specificity (PO#23-R1) | 14 + 23-R1 ELISA specificity (PO#14 + PO#23-R1)
1 | SGSG ETVPNLLTQHCACI [Peptide 33] | 4 | 2.5 | >2.5 | + | – | – | – | – | – | – | – | – | – | – | – | – | – | – | –
2 | SGSG PNLSLPVPGAPPTP [Peptide 20] | 3.6 | 0.02 | >2.5 | – | + | >5 | 0.15 | + | >5 | no inhibition | 23% | 13 | – | – | – | – | – | – | –
3 | SGSG RTTSDGGYSFKYET [Peptide 30] | 2.5 | 0.6 | <0.01 | – | – | >5 | >5 | – | 2.5 | 25-30% | no suppression at all | – | < 0.01 | high affinity | 50 | 28 | – | – | –
4 | B1 | – | – | – | – | – | – | – | – | – | – | – | – | – | – | – | – | 100 | 100 | 100
